Values quoted from earlier work, collected in patent US7390507B2, “Compositions and methods for the treatment of radiation burns and other traumatic skin conditions” (priority 2004, dated 2008).

Key:
[1] = in vivo

Compound: NCCCNCCSP(=O)(O)O [amifostine]
- dermato-cytoprotective effect (retrospective analysis): significant dermato-cytoprotective effect

Compound: O=C1O[C@H]([C@@H](O)CO)C(O)=C1O [topical Vitamin C, Vitamin C]
- improvement in the results of irradiated breast tissue (human, in vivo): without improvement

Compound: O=C(O)CCCCC1CCSS1 (stereo not drawn) [Alpha-Lipoic Acid]
- effect on skin ageing / wrinkles [1]: some effect
